Row | melting point [°C] | SMILES
1 | 219 to 221 | CCOC(=O)c1cnc(Nc2ccc(-n3cnc(C)c3)c(F)c2)nc1-c1ccc(C(F)(F)F)cc1
2 | 232 to 234 | CCOC(=O)c1cnc(Nc2ccc(-n3cnc(C)c3)c(F)c2)nc1-c1ccc(Cl)cc1
3 | 195 to 197 | CCOC(=O)c1cnc(Nc2ccc(-n3cnc(C)c3)c(OC)c2)nc1-c1cccc(C#N)c1
4 | 248 to 250 | Cc1cn(-c2ccc(Nc3nc(-c4ccc(Cl)cc4)cc(C(F)(F)F)n3)cc2F)cn1
5 | 202 to 204 | COc1cc(Nc2nccc(-c3ccc(Cl)cc3)n2)ccc1-n1cnc(C)c1
6 | 202 to 204 | COc1cc(Nc2nc(-c3ccc(Cl)cc3)cc(C(F)(F)F)n2)ccc1-n1cnc(C)c1
7 | 216 to 218 | CCOC(=O)c1cnc(Nc2ccc(-n3cnc(C)c3)c(OC)c2)nc1-c1ccc(Cl)cc1 [Example 28, Ethyl 4-(4-chloro-phenyl)-2-[3-methoxy-4-(4-methyl-imidazol-1-yl)-phenylamino]-pyrimidine-5-carboxylate]

The next lines start with the compound.

Row | SMILES | melting point [°C]
8 | Cc1cn(-c2ccc(Nc3nccc(-c4ccc(C(F)(F)F)cc4)n3)cc2F)cn1 | 196 to 197
9 | Cc1cc(Cc2ccccc2)nc(Nc2ccc(-n3ccnc3CO)cc2)n1 | 95 to 98
10 | Cc1cn(-c2ccc(Nc3nc(C)cc(Cc4ccccc4)n3)cc2F)cn1 | 155 to 158
11 | COc1cc(Nc2nc(C)cc(Cc3ccccc3)n2)ccc1-c1cnc(C)s1 [Example 209, (4-Benzyl-6-methyl-pyrimidin-2-yl)-[3-methoxy-4-(2-methyl-thiazol-5-yl)-phenyl]-amine] | 138 to 141
12 | Cc1cc(Cc2ccccc2)nc(Nc2ccc(-n3cnc(C)n3)c(F)c2)n1 | 183 to 185
13 | COc1cc(Nc2nccc(-c3cccnc3)n2)ccc1-n1cnc(C)c1 | 204 to 206
14 | COc1cc(Nc2nc(-c3ccc(-n4ccnc4)cc3)cc(C(F)(F)F)n2)ccc1-n1cnc(C)c1 | 248 to 250
15 | CCOC(=O)C(c1ccccc1)c1nc(Nc2ccc(-n3cnc(C)c3)c(OC)c2)ncc1-c1ccccc1 (centres unmarked) | 84 to 86
16 | COc1cc(Nc2nccc(N3CCC(O)CC3)n2)ccc1-n1cnc(C)c1 | 197 to 200
17 | COc1cc(Nc2nc(-c3ccc(-n4cccn4)cc3)cc(C(F)(F)F)n2)ccc1-n1cnc(C)c1 | 252 to 254

From patent US20090215759A1, “MODULATORS FOR AMYLOID BETA” (priority 2008, published 2009)
